Key:
gastric acid secretion [1] = experiment: Gastric Antisecretory Activity in the Gastric Fistula Rat; format: in vivo, rat (male Long Evans); settings: sc; for ED50: read-out: ED50 sc
Experimental: Male Long Evans rats weighing about 240-260 grams at the time of cannula implantation are used. […] The fistula components are designed and the operative procedure is carried out exactly as described in the above reference. Post operatively the animals are individually housed in solid bottom cages with sawdust and are allowed food and water ad libitum throughout the entire recovery period. Animals are not used for test purposes for at least 15 days after the operative procedure. The animals are fasted but allowed water ad libitum for 20 hours before the testing procedure is to begin. […] The catheter is then screwed into the cannula in place of the plugging screw and the rat is placed in a clear plastic rectangular cage measuring 40 cm long, 15 cm wide and 13 cm high. The bottom of the cage has a slit approximately 1.5 cm wide and 25 cm long running down the center to accommodate the catheter which hangs through it. In this way the rat is not restricted and can move freely about the cage during collection periods. The remainder of the assay is carried out as described by Ridley et al. [Research Comm. Chem. Path. […] Gastric secretions collected during the first hour after washing the stomach are discarded as they may be contaminated. For oral evaluation, the catheter is then removed from the cannula and replaced with the plugging screw. […] After this time the plugging screw is removed and replaced with a catheter to which a small plastic vial has been attached to collect the gastric secretions. A two hour sample is collected (this represents the control secretion), the catheter removed and replaced with the plugging screw. […] Forty-five minutes later the plugging screw is again removed, replaced with the catheter attached to a small plastic vial and another 2 hour sample is collected. The secretions in the second sample are compared to those of the control sample in order to determine the effects of the test drug. […] Titratable acid output is calculated in microequivalents by multiplying the volume in milliliters by the acid concentration in milliequivalents per liter. Results are expressed as percent inhibition relative to control readings. Dose response curves are constructed and ED50 values are calculated by regression analyses. At least three rats are used at each dosage level and a minimum of three dosage levels are utilized for determination of a dose response curve.

H2-receptor = settings: cited from earlier work; for potency / effectiveness as H2-antagonist versus other H2-antagonist: compared with burimamide or metiamide
[2] = cited from earlier work
gastric acid secretion [3] = experiment: Gastric Antisecretory Activity in the Heidenhain Pouch Dog; format: in vivo
Experimental: Prior to surgery, hematology and blood chemistry profiles are obtained and an assessment made as to the general health of selected female dogs. Dogs are vaccinated with Tissue Vax 5 (DHLP--Pitman-Moore) and housed in general animal quarters for four weeks' observation so incipient diseases may become apparent. Dogs are fasted with water ad libitum 24 hours prior to surgery.
Anesthesia is induced with Sodium Pentothal (Abbott) 25-30 mg/kg iv. Subsequent anesthesia is maintained with methoxyflurane (Pitman-Moore). A mid-line linea alba incision from xiphoid to umbilicus provides good exposure and ease of closure. The stomach is pulled up into the operative field, the greater curvature stretched out at multiple points and clamps placed along the selected line of incision. The pouch is made from the corpus of the stomach so that true parietal cell juice is obtained. About 30% of the corpus volume is resected. The cannula is made of light-weight,biologically-inert material such as nylon or Delrin with dimensions and attachments after DeVito and Harkins [J. Appl. Physiol., 14, 138 (1959)]. Post operatively, dogs are medicated with antibiotics and an analgesic. They are allowed 2-3 months for recovery. Experiments are carried out in the following way: Dogs are fasted overnight (~18 hours) with water ad libitum prior to each experiment. The dogs are placed in a sling and a saphenous vein cannulated for drug administration. Histamine as the base (100 μg/kg/hr) and chlorpheniramine maleate (0.25 mg/kg/hr) are infused continuously (in a volume of 6 ml/hr) with a Harvard infusion pump.
Ninety minutes' infusion are allowed for the dogs to reach a steady state of acid output. At this time the drug or normal saline (control) is administered concomitantly with the secretagogue in a volume of 0.5 ml/kg over a 30 second period. When oral studies are to be carried out, the drug is administered via gastric gavage in a volume of 5 ml/kg. Infusion of the secretagogue is continued and 15 minute samples of the gastric juice are taken for 4.5 hours. Each sample is measured to the nearest 0.5 ml and titratable acidity is determined by titrating a 1 ml sample to pH 7.0 with 0.2 N NaOH, using an Autoburet and an electrometric pH meter (Radiometer).Titratable acid output is calculated in microequivalents by multiplying the volume in milliliters by the acid concentration in milliequivalents per liter.
Results are expressed as percent inhibition relative to control readings. Dose response curves are constructed and ED50 values are calculated by regression analyses. From 3 to 5 dogs are used at each dose level and a minimum of three dosage levels are utilized for determination of a dose response curve.

agranulocytosis = settings: in vivo; cited from earlier work
peptic ulcer disease = settings: clinical evaluation; cited from earlier work

## CN(C)Cc1ccc(CSCCNc2c(N)c(=O)c2=O)o1 [Example 2, 1-Amino-2-{2-[(5-dimethylaminomethyl-2-furyl)methylthio]ethylamino}cyclobutene-3,4-dione]
Gastric acid secretion [1]; Gastric Fistula Rat
  Potency Ratio (cimetidine = 1.0): ~ 2
  ED50: ~2 µmol/kg

## CNC(=S)NCCCCc1cnc[nH]1 [Burimamide]
H2-receptor; in animals and man
  inhibition of gastric secretion / clinical effectiveness: inhibits gastric secretion in animals and man
[2]
  oral absorption: oral absorption is poor

## CNC(=NC#N)NCCSCc1nc[nH]c1C [Cimetidine]
Gastric acid secretion [1]; Rattus norvegicus
  ED50: 3.8 µmol/kg
Gastric acid secretion [3]; Canis lupus familiaris, iv
  ED50: 2.18 µmol/kg
Gastric acid secretion [3]; Canis lupus familiaris, po
  ED50: ~3.3 µmol/kg
Gastric acid secretion [3]; oral
  ED50: 3.29 µmol/kg
H2-receptor
  potency / effectiveness as H2-antagonist versus other H2-antagonist: as effective an H2 -antagonist as metiamide
agranulocytosis
  toxicity (agranulocytosis): without producing agranulocytosis
Peptic ulcer disease
  therapeutic effect in treatment of peptic ulcer disease: effective therapeutic agent in the treatment of peptic ulcer disease

## Nc1c(NCCCOc2cccc(CN3CCCCC3)c2)c(=O)c1=O [Example 1, 1-Amino-2-[3-(3-piperidinomethylphenoxy)propylamino]cyclobutene-3,4-dione]
Gastric acid secretion [1]; Gastric Fistula Rat
  Potency Ratio (cimetidine = 1.0): 130
  ED50: 0.029 µmol/kg
Gastric acid secretion [3]; Canis lupus familiaris, oral, read-out: ED50
  ED50: 0.175 µmol/kg
Gastric acid secretion [3]; iv
  Potency Ratio (cimetidine = 1.0): 91
Gastric acid secretion [3]; oral
  Potency Ratio (cimetidine = 1.0): 19

## CNC(=S)NCCSCc1nc[nH]c1C [Metiamide]
H2-receptor
  potency / effectiveness as H2-antagonist versus other H2-antagonist: more potent than burimamide
H2-receptor; oral, man
  oral activity in man: orally active in man
agranulocytosis
  toxicity (agranulocytosis): toxicity (agranulocytosis)

Reference: patent US4395553A, “Chemical compounds” (Bristol-Myers Company, priority 1982, dated 1983)
